The text below walks through data of patent publication US11459323B2, “Monocyclic β-lactam compound for treating bacterial infection” (MEDSHINE DISCOVERY INC., priority 2018, dated 2022).

The structures appear in SMILES notation. In brackets after ≈: the same amount, converted by molar mass.

Data set [1] concerns E. coli NCTC 13476 (IMP-1 type). The data set can be described thus: MIC by micro-liquid dilution method (CLSI). Type of data set: cell-based. The following applies: Escherichia coli; E. coli NCTC13476; read-out: MIC.
In data set [2] the test system is E. coli ATCC BAA-2523 (OXA-48). Description: MIC by micro-liquid dilution method (CLSI). The note with it: Escherichia coli, ATCCBAA2523; E. coli ATCCBAA-2523; read-out: MIC. Type of data set: cell-based.
In the next data set the test system is P. aeruginosa PA 14. Description: MIC by micro-liquid dilution method (CLSI). The following applies: Pseudomonas aeruginosa, PA14; P. aeruginosa PA 14; read-out: MIC. The format is cell-based. Summed up: (§1)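 MICs were determined by broth microdilution following CLSI requirements. The strains tested included K. pneumoniae BAA-1705 (KPC-2) and BAA-2470 (NDM-1), P. aeruginosa PA 14 and E. coli MG1655ΔtolC.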

A further data set has as its system E. coli MG1655Δtol C. The data set can be described thus: MIC by micro-liquid dilution method (CLSI). Type of data set: cell-based. The note with it: Escherichia coli. Summed up: as §1
The subject of data set [3] is K. pneumoniae ATCC BAA-1705 (KPC-2). Description: MIC by micro-liquid dilution method (CLSI). The format is cell-based, Klebsiella pneumonia. The note with it: Klebsiella pneumoniae, ATCCBAA1705.
In another data set the test system is P. aeruginosa ATCC 35151. The data set can be described thus: MIC by micro-liquid dilution method (CLSI). The following applies: Pseudomonas aeruginosa, ATCC35151. The format is cell-based.
In data set [4] the test system is K. pneumoniae ATCC BAA-205 (TEM-1/SHV-1/SHV-12). Description: MIC by micro-liquid dilution method (CLSI). Type of data set: cell-based, Klebsiella pneumonia. The note with it: Klebsiella pneumoniae, ATCCBAA205.
Data set [5] concerns K. pneumoniae ATCC BAA-2470 (NDM-1). The data set can be described thus: MIC by micro-liquid dilution method (CLSI). The following applies: Klebsiella pneumoniae, ATCCBAA2470. Type of data set: cell-based, Klebsiella pneumonia.
A short description of data set [6]: Body weight of mice in Pseudomonas aeruginosa lung infection experiment (1). Type of data set: in vivo, CD-1 (ICR) mice. The note with it: Aztreonam group (400 mg/kg.day, ip). The procedure:
CD-1 (ICR) mice, provided by Beijing Charles River Laboratory Animal Technology Co., Ltd., weighing 23-27 g, 7 weeks old, female, a total of 64 mice.
The mice were weighed every day after the start of the experiment and the weight changes were recorded.
Graphpad Prism mapping software was used to make scatter plots of lung tissue CFU. SPSS19.0 software was used to count CFU and average body weight, and analysis of variance was used to analyze differences between groups.

The test system of a further data set is A. baumannii ATCC 17978. Description: MIC by micro-liquid dilution method (CLSI). Type of data set: cell-based. The following applies: Acinetobacter baumannii; A. baumannii ATCC17978; read-out: MIC.
Data set [7] relates to Pseudomonas aeruginosa PA14. Description: Lungs of immunosuppressed mice infected with Pseudomonas aeruginosa (1), lung bacterial load. The format is in vivo. The following applies: 24 hours after infection, total dosage 400 mg/kg, day, ip at 2 h, 4 h, 6 h, 8 h. The method, then:
Pseudomonas aeruginosa PA14. 64 mice were intraperitoneally injected with 150 mg/kg cyclophosphamide on the first day and the fourth day to give immunosuppressed mice. […] [table] The mice were injected with 50 μL of bacterial solution (2×10^3 CFU) through the airway. 2 hours after the infection, 4 mice in the model group was sacrificed by removing cervical vertebra. Two hours after infection, the drugs were administered by groups, and the mice were administered intraperitoneally once at 2 hours, 4 hours, 6 hours, and 8 hours, a total of 4 times. Mice of each group were sacrificed by removing cervical vertebra 24 hours after infection, lung and kidney tissues were taken aseptically and put into sterilized tissue homogenate tubes, weighed, and an appropriate amount of normal saline (NS) was added, the mixture was homogenized by a homogenizer for 1 min, the lung tissues of the model group were diluted 10^4, 10^5, 10^6 times, the lung tissues of each administration group were diluted 10, 100 times, the kidney tissues of the model group were diluted 10^2, […], 10^4 times, and the lung tissues of each administration group were diluted 10 times, the obtained mixtures were coated on TSA plates using spiral coater, then incubated at 37° C. overnight, and the CFU was counted with a colony counter. Graphpad Prism mapping software was used to make scatter plots of lung tissue CFU. SPSS19.0 software was used to count CFU and average body weight, and analysis of variance was used to analyze differences between groups.

As for `C[C@@H](O)[C@H]1C(=O)N2C(C(=O)O)=C(S[C@@H]3CN[C@H](C(=O)N(C)C)C3)[C@H](C)[C@H]12` [Meropenem, reference compound], the MIC in data set [1] is 32 µg/mL (≈ 83.4 µM); in data set [2], 2 µg/mL (≈ 5.22 µM); with P. aeruginosa PA 14, 0.5 µg/mL (≈ 1.3 µM); against E. coli MG1655Δtol C, at most 0.125 µg/mL; in [3], 128 µg/mL (≈ 334 µM); with P. aeruginosa ATCC 35151 it was at most 0.125 µg/mL. Also, the MIC is at most 0.125 µg/mL in data set [4] and above 128 µg/mL in data set [5].

With `C[C@H]1[C@H](NC(=O)/C(=N\OC(C)(C)C(=O)O)c2csc(N)n2)C(=O)N1S(=O)(=O)O` [Aztreonam, reference compound], the “Body weight on the fifth day” value in data set [6] amounted to 28.02 ± 1.08 g. Besides, in data set [6], the “Body weight on the first day” value is listed as 27.16 ± 1.74 g. In data set [6], the “Body weight on the fourth day” value is 27.80 ± 2.37 g. Also, the MIC in data set [1] was 0.25 µg/mL (≈ 0.574 µM); in [2], 16 µg/mL (≈ 36.7 µM); with P. aeruginosa PA 14, 8 µg/mL (≈ 18.4 µM); in the data set with E. coli MG1655Δtol C, at most 0.125 µg/mL; in the data set with A. baumannii ATCC 17978 it was 32 µg/mL (≈ 73.5 µM); against P. aeruginosa ATCC 35151 it was at most 0.125 µg/mL. The compound also displayed an LOG10-of bacterial load in [7] of 1.62 ± 2.22.

As a reminder, the MIC is the lowest concentration found to suppress growth.
